Key:
[1] = system: Hsp90; experiment: IC50 of compounds of the invention (Table 2; Her2 degradation Method 2, MV-4-11 cell survival, Cell Counting Kit-8); assay type: cell-based, human; details: text calls it IC50 for Her2 degradation; Method 2: MV-4-11 cells, 72 hours; read-out: IC50 of compounds of the invention for inhibition of Hsp90
Method: MV-4-11 cells (20,000 cells/well) were cultured in 96-well plates and maintained at 37° C. for several hours. The cells were treated with a compound of the invention or 17AAG (a positive control) at various concentrations and incubated at 37° C. for 72 hours. Cell survival was measured with Cell Counting Kit-8 (Dojindo Laboratories, Cat. # CK04).

[2] = system: Her2; experiment: Degradation of Her2 in BT-474 cells, Western blot (Method 1); assay type: cell-based, human; details: 0.5 μM, overnight
Method: Human high-Her2 breast carcinoma BT474 (HTB-20), SK-BR-3 (HTB-30) and MCF-7 breast carcinoma (HTB-22) from American Type Culture Collection, VA, USA were grown in Dulbecco's modified Eagle's medium with 4 mM L-glutamine and antibiotics (100 IU/ml penicillin and 100 ug/ml streptomycine;GibcoBRL). To obtain exponential cell growth, cells were trypsinized, counted and seeded at a cell density of 0.5×10^6 cells/ml regularly, every 3 days. All experiments were performed on day 1 after cell passage.
BT-474 cells are treated with 0.5 μM, 2 μM, or 5 μM of 17AAG (a positive control) or 0.5 μM, 2 μM, or 5 μM of a compound of the invention overnight in DMEM medium. After treatment, each cytoplasmic sample is prepared from 1×10^6 cells by incubation of cell lysis buffer (#9803, cell Signaling Technology) on ice for 10 minutes. The resulting supernatant used as the cytosol fractions is dissolved with sample buffer for SDS-PAGE and run on a SDS-PAGE gel, blotted onto a nitrocellulose membrane by using semi-dry transfer. Non-specific binding to nitrocellulose is blocked with 5% skim milk in TBS with 0.5% Tween at room temperature for 1 hour, then probed with anti-Her2/ErB2 mAb (rabbit IgG, #2242, Cell Signaling) and anti-Tubulin (T9026, Sigma) as housekeeping control protein. […]

Row | Structure (SMILES) | IC50 [1] | Degradation of Her2 [2]
1 | NC(=O)c1nnc2n1CCCCc1cc(O)cc(O)c1-2 [Compound 2, 10,12-dihydroxy-5,6,7,8-tetrahydrobenzo[c][1,2,4]triazolo[4,3-a]azocine-3-carboxamide] | 12.2 µM | –
2 | NC(=O)c1nnc2n1C/C=C\Cc1cc(O)cc(O)c1-2 [Compound 3, (Z)-10,12-dihydroxy-5,8-dihydrobenzo[c][1,2,4]triazolo[4,3-a]azocine-3-carboxamide] | 17 µM | –
3 | NC(=O)c1nnc2n1CC(O)C(O)Cc1cc(O)cc(O)c1-2 (stereo not drawn) [Compound 4, 6,7,10,12-tetrahydroxy-5,6,7,8-tetrahydrobenzo[c][1,2,4]triazolo[4,3-a]azocine-3-carboxamide] | 24.3 µM | –
4 | NC(=O)c1nnc2n1CC(Br)C(Br)Cc1cc(O)cc(O)c1-2 (stereo not drawn) [Compound 5, 6,7-dibromo-10,12-dihydroxy-5,6,7,8-tetrahydrobenzo[c][1,2,4]triazolo[4,3-a]azocine-3-carboxamide compound with dibromine (1:1)] | 23.4 µM | –
5 | NC(=O)c1nnc2n1CCCc1cc(O)cc(O)c1-2 [Compound 12, 9,11-dihydroxy-6,7-dihydro-5H-benzo[c][1,2,4]triazolo[4,3-a]azepine-3-carboxamide] | 87.2 µM | –
6 | C=CCNC1=C2C[C@@H](C)C[C@H](OC)[C@H](O)[C@@H](C)/C=C(\C)[C@H](OC(N)=O)[C@@H](OC)/C=C\C=C(/C)C(=O)NC(=CC1=O)C2=O [Compound 17AAG, 17-allylamino-17-demethoxygeldanamycin] | – | partial degradation

Reference: patent US9156836B2, “Tricyclic triazole compounds that modulate HSP90 activity” (Synta Pharmaceuticals Corp., priority 2008, dated 2015)
